# Where two headings read alike, the source gives them in different places.
# Columns and labels:
# [1] = system: Plasmodium berghei (Pb-Luc) exoerythrocytic-stage parasites; conditions: for normalized signal at concentration 0.000508053 / normalized signal at concentration 0.00152416 / normalized signal at concentration 0.00457247 / normalized signal at concentration 0.0137174 / normalized signal at concentration 0.0411523 / normalized signal at concentration 0.123457 / normalized signal at concentration 0.37037 / normalized signal at concentration 1.11111 / normalized signal at concentration 3.33333 / normalized signal at concentration 10 / normalized signal at 0.000508053 (first series) / normalized signal at 0.000508053 (second series) / normalized signal at 0.00152416 (first series) / normalized signal at 0.00152416 (second series) / normalized signal at 0.00457247 (first series) / normalized signal at 0.00457247 (second series) / normalized signal at 0.0137174 (first series) / normalized signal at 0.0137174 (second series) / normalized signal at 0.0411523 (first series) / normalized signal at 0.0411523 (second series) / normalized signal at 0.123457 (first series) / normalized signal at 0.123457 (second series) / normalized signal at 0.37037 (first series) / normalized signal at 0.37037 (second series) / normalized signal at 1.11111 (first series) / normalized signal at 1.11111 (second series) / normalized signal at 3.33333 (first series) / normalized signal at 3.33333 (second series) / normalized signal at 10 (first series) / normalized signal at 10 (second series): fraction of control; for IC50: read-out: PbLuc_IC50; for normalized signal at 0.000508053 (first series): concentration 0.000508053, first replicate series; for normalized signal at 0.000508053 (second series): concentration 0.000508053, second replicate series; for normalized signal at 0.00152416 (first series): concentration 0.00152416, first replicate series; for normalized signal at 0.00152416 (second series): concentration 0.00152416, second replicate series; for normalized signal at 0.00457247 (first series): concentration 0.00457247, first replicate series; for normalized signal at 0.00457247 (second series): concentration 0.00457247, second replicate series; for normalized signal at 0.0137174 (first series): concentration 0.0137174, first replicate series; for normalized signal at 0.0137174 (second series): concentration 0.0137174, second replicate series; for normalized signal at 0.0411523 (first series): concentration 0.0411523, first replicate series; for normalized signal at 0.0411523 (second series): concentration 0.0411523, second replicate series; for normalized signal at 0.123457 (first series): concentration 0.123457, first replicate series; for normalized signal at 0.123457 (second series): concentration 0.123457, second replicate series; for normalized signal at 0.37037 (first series): concentration 0.37037, first replicate series; for normalized signal at 0.37037 (second series): concentration 0.37037, second replicate series; for normalized signal at 1.11111 (first series): concentration 1.11111, first replicate series; for normalized signal at 1.11111 (second series): concentration 1.11111, second replicate series; for normalized signal at 3.33333 (first series): concentration 3.33333, first replicate series; for normalized signal at 3.33333 (second series): concentration 3.33333, second replicate series; for normalized signal at 10 (first series): concentration 10, first replicate series; for normalized signal at 10 (second series): concentration 10, second replicate series
# HepG2-A16-CD81EGFP cells = conditions: for IC50: read-out: Tox_IC50, HepG2 cytotoxicity
# [2] = second series of columns (replicate)
# [3] = sheet 2nd round, maximal inhibition in dose response
# [4] = 2nd round, maximal inhibition in dose series
# [5] = 2nd round, Broad DOS compounds, unit not printed (dose series head 10 to 0.000508053)
compound,measurement,setting,value
COc1ccccc1NC(=O)N1C[C@@H]2N[C@H](C1)C2c1ccc(/C=C/c2ccccc2)cc1 (stereo partly drawn) [BRD-K72765192-019-01-4],normalized signal at concentration 0.000508053,[1]; first series of columns,0.9244
same,normalized signal at concentration 0.00152416,[1]; first series of columns,0.9767
same,normalized signal at concentration 0.00457247,[1]; first series of columns,0.9222
same,normalized signal at concentration 0.0137174,[1]; first series of columns,1.063
same,normalized signal at concentration 0.0411523,[1]; first series of columns,0.9659
same,normalized signal at concentration 0.123457,[1]; first series of columns,0.9808
same,normalized signal at concentration 0.37037,[1]; first series of columns,1.083
same,normalized signal at concentration 1.11111,[1]; first series of columns,0.9875
same,normalized signal at concentration 3.33333,[1]; first series of columns,1.091
same,normalized signal at concentration 10,[1]; first series of columns,0.9372
same,IC50,"[1]; sheet 2nd round, Pb-Luc exoerythrocytic stage, 10-point dose response, top concentration 10",> 10 µM
same,normalized signal at concentration 0.000508053,[1]; [2],0.82
same,normalized signal at concentration 0.00152416,[1]; [2],0.9053
same,normalized signal at concentration 0.00457247,[1]; [2],1.027
same,normalized signal at concentration 0.0137174,[1]; [2],0.8721
same,normalized signal at concentration 0.0411523,[1]; [2],0.9154
same,normalized signal at concentration 0.123457,[1]; [2],0.911
same,normalized signal at concentration 0.37037,[1]; [2],1.02
same,normalized signal at concentration 1.11111,[1]; [2],0.9038
same,normalized signal at concentration 3.33333,[1]; [2],0.8733
same,normalized signal at concentration 10,[1]; [2],0.8146
same,PbLuc_max_inhibition (%),[1]; [3],19%
same,IC50,HepG2-A16-CD81EGFP cells; sheet 2nd round,> 10 µM
same,Tox_max_inhibition (%),HepG2-A16-CD81EGFP cells; [3],5.61%
C[C@@H]1CCCCO[C@@H](CN(C)S(=O)(=O)c2ccc(F)cc2)[C@@H](C)CN([C@@H](C)CO)C(=O)c2cc(N(C)C)ccc2O1 [BRD-K74261250-001-01-9],normalized signal at concentration 10,[1]; first series of dose-response columns,0.8467
same,normalized signal at concentration 0.000508053,[1]; first series,1.172
same,normalized signal at concentration 0.00152416,[1]; first series,0.9183
same,normalized signal at concentration 0.00457247,[1]; first series,0.77
same,normalized signal at concentration 0.0137174,[1]; first series,1.0389
same,normalized signal at concentration 0.0411523,[1]; first series,0.8236
same,normalized signal at concentration 0.123457,[1]; first series,0.9547
same,normalized signal at concentration 0.37037,[1]; first series,1.005
same,normalized signal at concentration 1.11111,[1]; first series,0.9156
same,normalized signal at concentration 3.33333,[1]; first series,1.13
same,IC50,"[1]; sheet 2nd round, Broad compounds, dose response",> 10 µM
same,normalized signal at concentration 10,[1]; second series of dose-response columns,0.7483
same,normalized signal at concentration 0.000508053,[1]; second series,1.01
same,normalized signal at concentration 0.00152416,[1]; second series,0.834
same,normalized signal at concentration 0.00457247,[1]; second series,1.154
same,normalized signal at concentration 0.0137174,[1]; second series,0.7879
same,normalized signal at concentration 0.0411523,[1]; second series,0.9255
same,normalized signal at concentration 0.123457,[1]; second series,1.124
same,normalized signal at concentration 0.37037,[1]; second series,0.8451
same,normalized signal at concentration 1.11111,[1]; second series,0.9426
same,normalized signal at concentration 3.33333,[1]; second series,1.1
same,PbLuc_max_inhibition (%),[1]; [3],25%
same,IC50,HepG2-A16-CD81EGFP cells; sheet 2nd round,> 10 µM
same,Tox_max_inhibition (%),HepG2-A16-CD81EGFP cells; [3],6.44%
COc1ccc(NC(=O)N(C)C[C@H]2Oc3c(NC(=O)CCCCCC(=O)Nc4ccccc4N)cccc3C(=O)N([C@H](C)CO)C[C@H]2C)cc1 [BRD-K75018854-001-01-2],PbLuc_max_inhibition (%),[1]; [4],27%
same,normalized signal at 0.000508053 (first series),[1],1.05
same,normalized signal at 0.000508053 (second series),[1],0.8619
same,normalized signal at 0.00152416 (first series),[1],0.9022
same,normalized signal at 0.00152416 (second series),[1],0.7297
same,normalized signal at 0.00457247 (first series),[1],1.1676
same,normalized signal at 0.00457247 (second series),[1],0.8627
same,normalized signal at 0.0137174 (first series),[1],0.9808
same,normalized signal at 0.0137174 (second series),[1],0.929
same,normalized signal at 0.0411523 (first series),[1],1.1704
same,normalized signal at 0.0411523 (second series),[1],0.8231
same,normalized signal at 0.123457 (first series),[1],1.053
same,normalized signal at 0.123457 (second series),[1],1.0322
same,normalized signal at 0.37037 (first series),[1],0.9438
same,normalized signal at 0.37037 (second series),[1],0.8176
same,normalized signal at 1.11111 (first series),[1],0.9278
same,normalized signal at 1.11111 (second series),[1],0.8826
same,normalized signal at 3.33333 (first series),[1],1.001
same,normalized signal at 3.33333 (second series),[1],1.022
same,normalized signal at 10 (first series),[1],0.9917
same,normalized signal at 10 (second series),[1],1.205
same,IC50,[1]; [5],> 10 µM
same,Tox_max_inhibition (%),HepG2-A16-CD81EGFP cells; [4],8%
same,IC50,"HepG2-A16-CD81EGFP cells; 2nd round, unit inferred",> 10 µM
O=C(Nc1ccccc1F)N1CCCCN2[C@@H](CO)[C@@H](c3ccc(/C=C/c4ccccc4)cc3)[C@@H]2C1 [BRD-K75724375-001-01-5],normalised signal at concentration 0.000508053 (first series),"[1]; concentration 0.000508053, first series",0.9105
same,normalised signal at concentration 0.000508053 (second series),"[1]; concentration 0.000508053, second series",0.9278
same,normalised signal at concentration 0.00152416 (first series),"[1]; concentration 0.00152416, first series",1.073
same,normalised signal at concentration 0.00152416 (second series),"[1]; concentration 0.00152416, second series",0.9037
same,normalised signal at concentration 0.00457247 (first series),"[1]; concentration 0.00457247, first series",0.819
same,normalised signal at concentration 0.00457247 (second series),"[1]; concentration 0.00457247, second series",0.9578
same,normalised signal at concentration 0.0137174 (first series),"[1]; concentration 0.0137174, first series",0.8286
same,normalised signal at concentration 0.0137174 (second series),"[1]; concentration 0.0137174, second series",0.9852
same,normalised signal at concentration 0.0411523 (first series),"[1]; concentration 0.0411523, first series",0.8408
same,normalised signal at concentration 0.0411523 (second series),"[1]; concentration 0.0411523, second series",0.7698
same,normalised signal at concentration 0.123457 (first series),"[1]; concentration 0.123457, first series",0.9337
same,normalised signal at concentration 0.123457 (second series),"[1]; concentration 0.123457, second series",1.085
same,normalised signal at concentration 0.37037 (first series),"[1]; concentration 0.37037, first series",0.7789
same,normalised signal at concentration 0.37037 (second series),"[1]; concentration 0.37037, second series",1.01
same,normalised signal at concentration 1.11111 (first series),"[1]; concentration 1.11111, first series",1.025
same,normalised signal at concentration 1.11111 (second series),"[1]; concentration 1.11111, second series",0.8416
same,normalised signal at concentration 3.33333 (first series),"[1]; concentration 3.33333, first series",0.8686
same,normalised signal at concentration 3.33333 (second series),"[1]; concentration 3.33333, second series",0.672
same,normalised signal at concentration 10 (first series),"[1]; concentration 10, first series of dose columns",0.5018
same,normalised signal at concentration 10 (second series),"[1]; concentration 10, second series of dose columns",0.4819
same,IC50,"[1]; sheet ""2nd round"", Broad compounds, dose response top concentration 10",> 10 µM
same,PbLuc_max_inhibition (%),"[1]; sheet ""2nd round""",52%
same,IC50,"HepG2-A16-CD81EGFP cells; sheet ""2nd round""",> 10 µM
same,Tox_max_inhibition (%),"HepG2-A16-CD81EGFP cells; sheet ""2nd round""",3.77%
C[C@@H]1CN([C@H](C)CO)C(=O)c2ccccc2-c2ccccc2CO[C@H]1CN(C)C(=O)[C@H](Cc1ccccc1)N(C)C [BRD-K75961033-001-01-7],PbLuc_max_inhibition (%),[1]; [4],45%
same,normalized signal at 0.000508053 (first series),[1],1.06
same,normalized signal at 0.000508053 (second series),[1],0.8091
same,normalized signal at 0.00152416 (first series),[1],0.9571
same,normalized signal at 0.00152416 (second series),[1],0.6896
same,normalized signal at 0.00457247 (first series),[1],0.9675
same,normalized signal at 0.00457247 (second series),[1],0.699
same,normalized signal at 0.0137174 (first series),[1],1.117
same,normalized signal at 0.0137174 (second series),[1],0.795
same,normalized signal at 0.0411523 (first series),[1],0.9735
same,normalized signal at 0.0411523 (second series),[1],0.8267
same,normalized signal at 0.123457 (first series),[1],0.9249
same,normalized signal at 0.123457 (second series),[1],0.6648
same,normalized signal at 0.37037 (first series),[1],0.9974
same,normalized signal at 0.37037 (second series),[1],0.9501
same,normalized signal at 1.11111 (first series),[1],1.014
same,normalized signal at 1.11111 (second series),[1],0.8135
same,normalized signal at 3.33333 (first series),[1],0.9327
same,normalized signal at 3.33333 (second series),[1],0.5506
same,normalized signal at 10 (first series),[1],0.7489
same,normalized signal at 10 (second series),[1],0.6892
same,IC50,[1]; [5],> 10 µM
same,Tox_max_inhibition (%),HepG2-A16-CD81EGFP cells; [4],5.71%
same,IC50,"HepG2-A16-CD81EGFP cells; 2nd round, unit inferred",> 10 µM

# — paper PMC4890880 (ACS infectious diseases, 2016)
